Like-named read-outs stand apart in the source and are kept apart here. Blank lines part the entries; values can stand above or below the molecule they belong to.
Columns and labels:
kainate receptor GluK2 = kainate receptor GluK2 (Rattus norvegicus, UniProt P42260); test: Two-electrode voltage clamp of kainate receptor in Xenopus laevis oocytes; format: cell-based; conditions: 100 µM CDC; after block of desensitization with ConA; n = 3
Excerpt: (§1) The resulting EC50 or IC50 values were averaged.

[1] = molecular target: AMPA receptor GluA1/GluA2 (Rattus norvegicus, UniProt P19490+P19491); test: Two-electrode voltage clamp of AMPA receptor in Xenopus laevis oocytes; format: cell-based; conditions: 100 µM CDC; n = 6
Excerpt: as §1

GluN3B Ser701 to Ala = GluN3B Ser701 to Ala (Mus musculus, UniProt Q91ZU9, S701A); test: Two-electrode voltage clamp of GluN3B point mutant Ser701 to Ala in oocytes; format: cell-based; conditions: for Increase in block for the mutant compared with wild type: 100 µM bile salt, n = 11–13
Excerpt: as §1

GluN1/GluN2D receptors = GluN1/GluN2D receptors (Rattus norvegicus, UniProt P35439+Q62645); test: Two-electrode voltage clamp of recombinant NMDARs in Xenopus laevis oocytes (GluN2D); conditions: for IC50: read-out: IC50 Tauro-CDC
GluN3B Tyr505 to Ala = GluN3B Tyr505 to Ala (Mus musculus, UniProt Q91ZU9, Y505A); conditions: n = 9
GluN1/GluN3B receptors = GluN1/GluN3B receptors (Mus musculus, UniProt Q91ZU9); test: Two-electrode voltage clamp of recombinant NMDARs in Xenopus laevis oocytes (GluN3B); conditions: for maximum block by tauro-CDC / IC50: n = 6; for IC50: read-out: mean IC50 for tauro-CDC
NMDAR = tested on: NMDAR; parameters: method as in PMID 1372086; conditions: read-out: reported EC50; cited from earlier work
uninjected oocytes = test: Agonist application to uninjected oocytes; format: cell-based, Xenopus laevis; conditions: n = 3
Excerpt: as §1

Sequence of GluN1/GluN3B receptors (Q91ZU9 25-1003, other chains not shown): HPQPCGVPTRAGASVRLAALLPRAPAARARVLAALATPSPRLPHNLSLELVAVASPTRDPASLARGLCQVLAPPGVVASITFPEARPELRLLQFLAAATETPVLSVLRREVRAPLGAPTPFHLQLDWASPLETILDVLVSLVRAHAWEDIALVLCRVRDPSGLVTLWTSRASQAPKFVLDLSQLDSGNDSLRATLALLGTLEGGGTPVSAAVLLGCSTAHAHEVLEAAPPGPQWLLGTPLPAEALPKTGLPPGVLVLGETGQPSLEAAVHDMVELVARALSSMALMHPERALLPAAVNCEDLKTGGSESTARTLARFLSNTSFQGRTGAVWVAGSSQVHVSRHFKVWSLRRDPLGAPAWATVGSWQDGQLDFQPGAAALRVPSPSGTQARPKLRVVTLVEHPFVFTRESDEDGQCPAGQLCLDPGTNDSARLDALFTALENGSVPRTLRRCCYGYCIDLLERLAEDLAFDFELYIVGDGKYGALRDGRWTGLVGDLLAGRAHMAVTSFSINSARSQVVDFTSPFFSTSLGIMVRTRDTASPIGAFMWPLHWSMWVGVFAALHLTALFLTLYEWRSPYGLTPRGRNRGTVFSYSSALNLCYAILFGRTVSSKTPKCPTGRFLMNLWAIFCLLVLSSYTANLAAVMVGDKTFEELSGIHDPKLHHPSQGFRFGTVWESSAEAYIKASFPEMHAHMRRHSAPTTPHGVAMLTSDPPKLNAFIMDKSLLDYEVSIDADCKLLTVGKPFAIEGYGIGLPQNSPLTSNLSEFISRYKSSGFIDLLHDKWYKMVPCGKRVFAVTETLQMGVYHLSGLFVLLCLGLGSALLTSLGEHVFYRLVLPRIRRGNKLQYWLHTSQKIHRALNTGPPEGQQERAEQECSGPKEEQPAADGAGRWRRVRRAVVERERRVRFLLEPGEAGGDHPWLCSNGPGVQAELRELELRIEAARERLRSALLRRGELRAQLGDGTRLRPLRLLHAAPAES
Sequence of GluN3B Ser701 to Ala (Q91ZU9 25-1003 S701A, other chains not shown): as the sequence (Q91ZU9 25-1003, other chains not shown) above, with S677A counted along it
Sequence of GluN1/GluN2D receptors (Q62645 28-1323, other chains not shown): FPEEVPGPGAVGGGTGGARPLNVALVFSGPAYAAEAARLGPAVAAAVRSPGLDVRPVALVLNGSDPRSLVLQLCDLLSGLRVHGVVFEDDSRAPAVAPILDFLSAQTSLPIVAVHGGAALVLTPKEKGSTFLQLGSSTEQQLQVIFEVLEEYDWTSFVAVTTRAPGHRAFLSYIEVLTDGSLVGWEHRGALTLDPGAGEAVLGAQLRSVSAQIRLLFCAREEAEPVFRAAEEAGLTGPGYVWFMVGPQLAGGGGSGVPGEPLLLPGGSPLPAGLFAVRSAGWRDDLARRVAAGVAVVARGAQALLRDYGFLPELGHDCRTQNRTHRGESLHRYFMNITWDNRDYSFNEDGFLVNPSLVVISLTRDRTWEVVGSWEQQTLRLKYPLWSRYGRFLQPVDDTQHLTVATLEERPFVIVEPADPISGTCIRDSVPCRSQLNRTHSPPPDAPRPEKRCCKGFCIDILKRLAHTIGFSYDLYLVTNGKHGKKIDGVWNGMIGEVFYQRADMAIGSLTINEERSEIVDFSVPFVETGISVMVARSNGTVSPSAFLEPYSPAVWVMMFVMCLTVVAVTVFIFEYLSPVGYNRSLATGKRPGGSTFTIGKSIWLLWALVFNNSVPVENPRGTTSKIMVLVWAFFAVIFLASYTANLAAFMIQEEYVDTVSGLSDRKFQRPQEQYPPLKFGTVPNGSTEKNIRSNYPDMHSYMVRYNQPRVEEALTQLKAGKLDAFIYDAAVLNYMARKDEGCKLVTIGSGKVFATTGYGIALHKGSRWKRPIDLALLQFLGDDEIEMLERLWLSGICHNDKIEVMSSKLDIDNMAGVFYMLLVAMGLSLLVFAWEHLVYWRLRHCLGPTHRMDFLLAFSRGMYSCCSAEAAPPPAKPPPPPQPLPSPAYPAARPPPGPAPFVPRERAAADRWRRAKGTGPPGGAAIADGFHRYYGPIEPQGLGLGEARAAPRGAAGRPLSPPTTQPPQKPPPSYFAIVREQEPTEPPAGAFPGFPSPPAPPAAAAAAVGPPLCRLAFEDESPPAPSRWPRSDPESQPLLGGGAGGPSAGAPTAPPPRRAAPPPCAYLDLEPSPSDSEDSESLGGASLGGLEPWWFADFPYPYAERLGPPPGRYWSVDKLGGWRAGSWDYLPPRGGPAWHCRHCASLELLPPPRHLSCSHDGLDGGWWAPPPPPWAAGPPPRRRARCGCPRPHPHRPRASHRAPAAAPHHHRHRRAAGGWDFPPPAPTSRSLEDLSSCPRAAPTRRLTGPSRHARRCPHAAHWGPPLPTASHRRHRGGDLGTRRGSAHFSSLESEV
Sequence of GluN3B Tyr505 to Ala (Q91ZU9 25-1003 Y505A, other chains not shown): as the sequence (Q91ZU9 25-1003, other chains not shown) above, with Y481A counted along it
Sequence of kainate receptor GluK2 (P42260 32-908): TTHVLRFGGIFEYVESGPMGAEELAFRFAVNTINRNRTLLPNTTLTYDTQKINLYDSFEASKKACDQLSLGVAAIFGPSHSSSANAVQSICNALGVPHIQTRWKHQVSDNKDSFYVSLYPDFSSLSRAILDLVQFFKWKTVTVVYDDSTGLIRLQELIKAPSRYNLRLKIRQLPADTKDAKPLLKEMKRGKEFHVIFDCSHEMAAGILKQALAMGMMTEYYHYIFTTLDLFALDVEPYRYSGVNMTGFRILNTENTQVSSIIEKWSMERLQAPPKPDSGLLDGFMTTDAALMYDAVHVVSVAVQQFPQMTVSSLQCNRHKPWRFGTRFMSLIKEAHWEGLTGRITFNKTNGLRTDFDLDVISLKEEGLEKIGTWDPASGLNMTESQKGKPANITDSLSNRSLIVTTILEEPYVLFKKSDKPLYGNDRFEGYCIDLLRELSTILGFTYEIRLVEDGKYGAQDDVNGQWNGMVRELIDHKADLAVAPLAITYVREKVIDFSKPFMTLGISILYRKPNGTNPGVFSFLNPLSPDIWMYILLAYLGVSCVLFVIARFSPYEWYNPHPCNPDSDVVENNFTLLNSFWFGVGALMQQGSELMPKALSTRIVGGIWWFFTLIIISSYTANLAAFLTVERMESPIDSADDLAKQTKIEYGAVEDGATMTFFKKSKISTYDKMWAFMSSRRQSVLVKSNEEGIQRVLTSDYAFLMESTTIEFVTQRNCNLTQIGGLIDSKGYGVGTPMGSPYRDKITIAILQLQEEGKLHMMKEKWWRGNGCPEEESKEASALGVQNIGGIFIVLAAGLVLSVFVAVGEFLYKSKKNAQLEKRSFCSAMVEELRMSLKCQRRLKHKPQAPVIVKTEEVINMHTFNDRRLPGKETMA
Sequence of AMPA receptor GluA1/GluA2 (P19490 19-907): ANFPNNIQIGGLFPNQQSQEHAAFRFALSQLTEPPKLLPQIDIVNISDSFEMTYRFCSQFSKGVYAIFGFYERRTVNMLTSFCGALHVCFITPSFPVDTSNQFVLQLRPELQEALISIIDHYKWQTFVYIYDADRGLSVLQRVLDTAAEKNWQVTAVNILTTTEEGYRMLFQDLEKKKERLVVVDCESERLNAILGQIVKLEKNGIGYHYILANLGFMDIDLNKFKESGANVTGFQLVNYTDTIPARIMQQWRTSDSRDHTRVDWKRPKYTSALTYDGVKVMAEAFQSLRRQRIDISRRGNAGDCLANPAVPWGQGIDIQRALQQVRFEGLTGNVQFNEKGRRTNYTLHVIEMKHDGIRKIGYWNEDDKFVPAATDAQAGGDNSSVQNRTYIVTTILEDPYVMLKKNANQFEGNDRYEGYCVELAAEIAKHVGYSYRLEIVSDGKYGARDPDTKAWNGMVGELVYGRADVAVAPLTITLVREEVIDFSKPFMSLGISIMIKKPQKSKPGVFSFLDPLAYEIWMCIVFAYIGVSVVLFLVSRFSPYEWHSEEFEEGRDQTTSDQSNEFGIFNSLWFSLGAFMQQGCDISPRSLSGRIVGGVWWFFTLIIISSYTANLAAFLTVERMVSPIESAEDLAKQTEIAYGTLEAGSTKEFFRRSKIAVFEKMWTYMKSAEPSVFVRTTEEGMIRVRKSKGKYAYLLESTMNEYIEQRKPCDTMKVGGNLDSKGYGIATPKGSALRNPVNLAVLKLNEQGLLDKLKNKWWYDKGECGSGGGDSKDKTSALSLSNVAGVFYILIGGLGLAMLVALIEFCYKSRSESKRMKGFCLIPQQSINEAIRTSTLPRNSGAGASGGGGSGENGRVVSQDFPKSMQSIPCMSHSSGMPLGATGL
Sequence of AMPA receptor GluA1/GluA2 (P19491 22-883): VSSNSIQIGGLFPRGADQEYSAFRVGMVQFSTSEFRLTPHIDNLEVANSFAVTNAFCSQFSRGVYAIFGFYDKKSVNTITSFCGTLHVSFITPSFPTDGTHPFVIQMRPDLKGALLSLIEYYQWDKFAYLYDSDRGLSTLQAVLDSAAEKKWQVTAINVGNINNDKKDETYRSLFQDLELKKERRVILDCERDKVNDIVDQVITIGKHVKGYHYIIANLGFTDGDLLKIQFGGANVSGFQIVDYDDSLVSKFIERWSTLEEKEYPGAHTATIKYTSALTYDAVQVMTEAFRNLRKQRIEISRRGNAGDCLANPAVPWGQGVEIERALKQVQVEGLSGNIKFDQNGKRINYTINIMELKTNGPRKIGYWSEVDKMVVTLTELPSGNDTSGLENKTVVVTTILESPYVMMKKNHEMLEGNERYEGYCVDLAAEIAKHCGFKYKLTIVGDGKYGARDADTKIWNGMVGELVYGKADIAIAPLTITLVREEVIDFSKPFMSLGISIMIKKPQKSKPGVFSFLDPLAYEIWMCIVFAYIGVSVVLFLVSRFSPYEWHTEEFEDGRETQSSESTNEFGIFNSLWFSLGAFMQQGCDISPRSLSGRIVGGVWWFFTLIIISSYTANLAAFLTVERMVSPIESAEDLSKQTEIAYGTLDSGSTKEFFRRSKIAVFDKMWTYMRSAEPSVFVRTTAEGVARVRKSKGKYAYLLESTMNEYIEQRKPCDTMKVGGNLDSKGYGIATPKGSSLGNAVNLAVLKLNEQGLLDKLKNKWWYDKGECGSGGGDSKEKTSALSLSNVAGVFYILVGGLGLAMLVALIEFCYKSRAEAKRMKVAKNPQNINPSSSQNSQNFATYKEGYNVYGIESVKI

Reduction of GluA1/GluA2 currents [1]: 7 ± 1%
Increase in block for the mutant compared with wild type (GluN3B Ser701 to Ala): 15%
Structure (SMILES): C[C@H](CCC(=O)O)[C@H]1CC[C@H]2[C@@H]3[C@H](O)C[C@@H]4C[C@H](O)CC[C@]4(C)[C@H]3CC[C@]12C [CDC, chenodeoxycholate]
Inhibition of glutamate-induced steady-state GluK2 current (kainate receptor GluK2): no inhibition

Structure (SMILES): N[C@@H](CCC(=O)O)C(=O)O [Glu, glutamate]
max. Glu-induced current [normalized] (GluN1/GluN2D receptors; 10 µM Gly): 1.00 ± 0.17 (7)
max. Glu-induced current [normalized] (GluN1/GluN2D receptors; 10 µM Gly + 180 µM Tauro-CDC): 0.25 ± 0.06 (7)

Structure (SMILES): NCC(=O)O [Gly, glycine]
glycine-induced currents (GluN3B Ser701 to Ala; Ser701 to Ala mutant, n = 29): 106 ± 12 nA
Activation of mutant receptor by agonist (GluN3B Tyr505 to Ala): could not be activated
glycine-induced currents (GluN1/GluN3B receptors; wild type, n = 30): 835 ± 85 nA

Structure (SMILES): N[C@@H](CCS(=O)(=O)O)C(=O)O [L-HCA, L-homocysteic acid]
EC50 (NMDAR): 13 µM
Activation of GluN3B by agonist (GluN1/GluN3B receptors; concentrations of up to 1 mM, n = 4): could not be activated

Structure (SMILES): O=C(O)c1cccnc1C(=O)O [QN, quinolinic acid]
Effect on uninjected oocytes (uninjected oocytes): no effect
EC50 (NMDAR): 7200 µM

Increase in block for the mutant compared with wild type (GluN3B Ser701 to Ala): 15%
max. block by Tauro-CDC (GluN1/GluN2D receptors; 10 µM Gly, 0.51 µM Glu): 100 ± 4 (11) %
max. block by Tauro-CDC (GluN1/GluN2D receptors; 10 µM Gly, 150 µM Glu): 87 ± 3 (13) %
Block of L-HCA-induced GluN2D currents (GluN1/GluN2D receptors; 100 µM tauro-CDC, L-HCA 13 µM, 10 µM glycine co-agonist, n = 12): 30 ± 2%
Inhibition of QN-induced GluN2D currents (GluN1/GluN2D receptors; 100 µM tauro-CDC, QN 1 mM, 10 µM glycine co-agonist, n = 7): 29 ± 2%
Reduction of QN-induced GluN2D currents (GluN1/GluN2D receptors; 100 µM tauro-CDC, QN 7.2 mM, 10 µM glycine co-agonist, n = 7): 26 ± 2%
Effect in the absence of NMDAR agonists (partial agonist action) (GluN1/GluN2D receptors; 100 µM tauro-CDC, n = 4): no effects
max. block by Tauro-CDC (GluN1/GluN2D receptors; […] Gly, 150 µM Glu): 98 ± 3 (8) %
IC50 (GluN1/GluN2D receptors; 10 µM Gly, 0.51 µM Glu): 137 ± 8 µM
IC50 (GluN1/GluN2D receptors; 10 µM Gly, 150 µM Glu (saturating agonist concentration)): 179 ± 11 µM
IC50 (GluN1/GluN2D receptors; […] Gly, 150 µM Glu): 153 ± 8 µM
maximum block by tauro-CDC (GluN1/GluN3B receptors; 5 μM glycine): 92 ± 3%
maximum block by tauro-CDC (GluN1/GluN3B receptors; 10 μM glycine): 95 ± 3%
Effect in the absence of NMDAR agonists (partial agonist action) (GluN1/GluN3B receptors; 100 µM tauro-CDC, n = 4): no effects
IC50 (GluN1/GluN3B receptors; in the presence of 5 μM glycine): 44 ± 7 µM
IC50 (GluN1/GluN3B receptors; in the presence of 10 μM glycine): 83 ± 8 µM
Reduction of QN-induced GluN3B currents (GluN1/GluN3B receptors; tauro-CDC 100 µM, QN 7.2 mM, n = 5): about 68 ± 4%
Structure (SMILES): C[C@H](CCC(=O)NCCS(=O)(=O)O)[C@H]1CC[C@H]2[C@@H]3[C@H](O)C[C@@H]4C[C@H](O)CC[C@]4(C)[C@H]3CC[C@]12C [Tauro-CDC]
Effect on I/V relationship and reversal potential of agonist-induced currents (GluN1/GluN2D receptors; 100 µM tauro-CDC, n = 10–11): did neither change the shape of I/V relationships nor did it shift the reversal potentials
Effect on I/V relationship and reversal potential of agonist-induced currents (GluN1/GluN3B receptors; 100 µM tauro-CDC, n = 10–11): did neither change the shape of I/V relationships nor did it shift the reversal potentials
